Test results published in paper PMC7815742 (Nature Communications, 2021).

B1: mycobacterial homolog of Insig protein (MvINS) (natural protein)
chain: MRLRISEAVVLFLLGAVAALIGDHSHVVTGTTVYHTDAVPFVWSSPFWFPILVGAATASLAELRLHLPAPRDGVTARQALGGVAAVVGTYVTTALVHAFPVVPVTALVCAAAAITWCVLGDGPGAACGVVIAVIGPAVEIALVQLGVFAYHPDSDGLFGVAPFLAPLYFAFGVVAALLGELAVARRPQLGPPVCDTVSRGPGAG
notes: mycobacterial homolog of Insig, MvINS; PDB 4XU4; theoretical protomer mass 23.6 kDa

Tests used:
(UniProt A0A3A0FWV3) = target: T1, (UniProt A0A3A0FWV3); assay: in vitro [3H]-progesterone reduction assay with purified enzyme, HPLC radiodetection; format: biochemical, Pseudomonadota bacterium
T1 construct: GenBank RIL07334.1, purified wild type
T1 sequence (A0A3A0FWV3 1-253 limits assumed): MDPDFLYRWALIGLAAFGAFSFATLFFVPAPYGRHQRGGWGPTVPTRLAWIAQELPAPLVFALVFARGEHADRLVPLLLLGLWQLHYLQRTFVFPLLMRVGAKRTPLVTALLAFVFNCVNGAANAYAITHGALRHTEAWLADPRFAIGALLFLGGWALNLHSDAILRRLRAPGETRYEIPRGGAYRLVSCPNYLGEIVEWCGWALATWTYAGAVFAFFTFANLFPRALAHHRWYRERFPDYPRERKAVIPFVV

[1] = target: the molecule itself; assay: AUC; sedimentation velocity, 20 °C, 25 mM HEPES pH 7.5, 150 mM NaCl, 5% glycerol, 0.02% DDM, 5 mM DTT; masses calculated with SEDFIT and GUSSI

Molecule | IC50 ((UniProt A0A3A0FWV3)) | stoichiometry N [1]
C[C@]12C=CC(=O)N[C@@H]1CC[C@@H]1[C@@H]2CC[C@]2(C)[C@@H](C(=O)Nc3cc(C(F)(F)F)ccc3C(F)(F)F)CC[C@@H]12 [Duta, dutasteride] | 1590 ± 190 nM | 
B1 |  | 3
